The target in assay [1] is T1, CHOK1 cells engineered to overexpress human CCR2 (Homo sapiens, UniProt P41597).
T1 construct: expressed in transfected cells; host or cells: CHOK1
As to the kind of experiment: Antibody Dependent Cellular Cytotoxicity (ADCC) Reporter Assay. Type of assay: cell-based. Particulars: with anti-cotinine antibody (human IgG1 Fc, S239D/I332E); Jurkat FcγRIIIa NFAT-luciferase reporter cells; average if several runs; read-out: ADCC Reporter Assay pEC50 (converted). The method, then:
An antibody dependent cellular cytoxocity reporter assay was conducted using the following four assay components: (i) ARM compound of Formula (I) targeting CCR2 (concentrations ranging from 1 pM to 10 μM) (ii) anti-cotinine antibody having a heavy chain sequence of SEQ ID NO: 11 and a light chain sequence of SEQ ID NO: 12 (rabbit variable region with human IgG1 Fc domain containing a DE mutation (S239D/I332E)) (concentrations ranging from 0.01 μg/mL to 200 μg/mL); (iii) target cells: CHOK1 cells engineered to overexpress either human CCR2 (typically 1000-20,000 cells per well) and (iv) reporter cells: Jurkat cells engineered to express FcγRIIIa with the reporter gene luciferase under the control of the NFAT promoter (typically 3000-75,000 cells per well). Reagents were combined in a final volume of 20 μL in a 384-well tissue culture treated plate. All four assay components were incubated together for about 12-18 hours. Thereafter, BioGlo Detection reagent (Promega) was added to the wells to lyse the cells and provide a substrate for the luciferase reporter protein. Luminescence signal was measured on a microplate reader and signal:background was calculated by dividing the signal of a test well by the signal obtained when no heterobivalent compound of Formula (I) was added. EC50 calculations were done using Graphpad Prism Software, specifically a nonlinear regression curve fit (Y=Bottom+(Top−Bottom)/(1+10 ^((Log EC50−X)*HillSlope))).
ARMs compounds of Formula (I) of the invention were tested for ADCC activity in the above assay in or more experimental runs and the results are shown in Table 3 below. Potency of the compounds of Formula (I) of the invention is reported as a pEC50 value. The pEC50 value is the negative log of the EC50 value, wherein the EC50 value is the half maximal effective concentration measured in molar (M). For compounds tested in more than one experimental run, the pEC50 value is reported as an average.
A general note: A reporter such as luciferase makes a cellular process visible.

Assay [2] deals with human alpha1 nicotinic acetylcholine (nACh) receptor (Homo sapiens, UniProt P02708+Q07001). As to the kind of experiment: Nicotinic Acetylcholine Receptor Antagonism Assay (IONFlux automated patch clamp). As to conditions: for IC50: antagonism of nAChR stimulated with acetylcholine, average if several runs; for Emax at 100 µM: maximum percentage antagonism at Maximum Concentration of Compound Tested 100 μM. Type of assay: cell-based. How it is done: Cells expressing human alpha1 nicotinic acetylcholine (nACh) receptor (nAChR) were washed and dissociated using Trypsin containing buffer. Cells were then washed and seeded at a density of 3-5 million cells/mL and allowed to grow for 3 days. Then, 60-80 μL of cells were added to plates and incubated with dose response of an ARM compound of Formula (I) with a top concentration of either 10 μM or 100 μM. The receptor was then stimulated via addition of acetylcholine (ACh) and activation of the receptor was monitored via the IONFlux automated patch clamp system. IonFlux Data Analyzer software was utilized to perform leak subtraction and measure (min) peak current amplitude.
Data processing: (1) Current values recorded for vehicle only applications in individual traps/patterns were subtracted from corresponding current amplitude values for control, test article and control+test article. (2) Control response was calculated as % of the average response of the 3rd out of total 3 ACh (10 mM) applications alone. In rare situations, if the 3rd ACh response was obscured due to technical artifacts, the 2nd and/or 1st ACh (10 mM) application was considered as control. The peak current amplitude generated in the presence of each test article concentration was then used to calculate the % inhibition as compared to control response (10 mM ACh alone). These estimates were further corrected for vehicle response and run down corrected by normalizing with time matched control responses (10 mM ACh alone). The corrected percentages were then fit with a non-linear function in GraphPad Prism 6 (or later versions) to determine the IC50.
Exclusion criteria: (i) any n's with poor recording quality, (ii) control current amplitude <500 pA or (iii) significant outliers, as determined by the Grubbs' test.
ARMs compounds of Formula (I) of the invention were tested for antagonism of the nAChR in the above assay in […] experimental runs and the results are shown in Table 6 below. Antagonistic activity of the compounds of Formula (I) of the invention is reported as an IC50 value (half maximal inhibitory concentration) and the maximum percentage antagonism observed at the highest concentration of compound of Formula (I) tested, as indicated in Table 6. For compounds tested in more than one experimental run, the IC50 value is reported as an average.
On the technique in general: Patch clamp records ionic current or voltage across a cell membrane.

From patent publication US20250154288A1, “CYTOTOXICITY TARGETING CHIMERAS FOR C-C CHEMOKINE RECEPTOR 2-EXPRESSING CELLS” (GLAXOSMITHKLINE INTELLECTUAL PROPERTY DEVELOPMENT LIMITED, priority 2022, published 2025) come the findings set out here.

Where a name gives a salt, the structure may show the parent alone.

Chain of human alpha1 nicotinic acetylcholine (nACh) receptor (P02708 21-457): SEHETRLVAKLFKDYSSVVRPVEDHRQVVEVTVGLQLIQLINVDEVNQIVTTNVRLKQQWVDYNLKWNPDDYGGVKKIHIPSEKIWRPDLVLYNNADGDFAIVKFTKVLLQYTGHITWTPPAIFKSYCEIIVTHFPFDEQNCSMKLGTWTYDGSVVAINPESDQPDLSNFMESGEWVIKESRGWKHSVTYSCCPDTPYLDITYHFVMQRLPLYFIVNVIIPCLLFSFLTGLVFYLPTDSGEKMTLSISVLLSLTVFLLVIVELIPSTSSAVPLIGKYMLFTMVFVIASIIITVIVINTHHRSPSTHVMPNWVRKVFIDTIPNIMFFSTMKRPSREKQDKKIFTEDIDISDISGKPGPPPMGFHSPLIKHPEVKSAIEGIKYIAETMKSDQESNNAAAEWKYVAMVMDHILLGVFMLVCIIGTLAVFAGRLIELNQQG
Chain of human alpha1 nicotinic acetylcholine (nACh) receptor (P11230 24-501 partner): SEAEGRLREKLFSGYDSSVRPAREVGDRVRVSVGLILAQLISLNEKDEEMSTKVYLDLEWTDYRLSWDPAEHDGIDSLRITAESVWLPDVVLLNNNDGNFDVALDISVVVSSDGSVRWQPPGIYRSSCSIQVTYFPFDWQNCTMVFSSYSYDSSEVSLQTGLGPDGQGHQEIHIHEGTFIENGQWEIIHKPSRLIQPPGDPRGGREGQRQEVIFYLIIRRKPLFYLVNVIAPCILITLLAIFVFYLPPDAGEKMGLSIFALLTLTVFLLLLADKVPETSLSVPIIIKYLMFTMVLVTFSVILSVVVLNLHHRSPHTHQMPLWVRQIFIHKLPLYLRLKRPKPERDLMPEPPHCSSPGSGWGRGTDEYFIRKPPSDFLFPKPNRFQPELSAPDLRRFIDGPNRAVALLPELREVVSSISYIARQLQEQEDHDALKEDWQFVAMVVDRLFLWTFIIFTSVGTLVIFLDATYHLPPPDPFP
Chain of human alpha1 nicotinic acetylcholine (nACh) receptor (Q07001 22-517): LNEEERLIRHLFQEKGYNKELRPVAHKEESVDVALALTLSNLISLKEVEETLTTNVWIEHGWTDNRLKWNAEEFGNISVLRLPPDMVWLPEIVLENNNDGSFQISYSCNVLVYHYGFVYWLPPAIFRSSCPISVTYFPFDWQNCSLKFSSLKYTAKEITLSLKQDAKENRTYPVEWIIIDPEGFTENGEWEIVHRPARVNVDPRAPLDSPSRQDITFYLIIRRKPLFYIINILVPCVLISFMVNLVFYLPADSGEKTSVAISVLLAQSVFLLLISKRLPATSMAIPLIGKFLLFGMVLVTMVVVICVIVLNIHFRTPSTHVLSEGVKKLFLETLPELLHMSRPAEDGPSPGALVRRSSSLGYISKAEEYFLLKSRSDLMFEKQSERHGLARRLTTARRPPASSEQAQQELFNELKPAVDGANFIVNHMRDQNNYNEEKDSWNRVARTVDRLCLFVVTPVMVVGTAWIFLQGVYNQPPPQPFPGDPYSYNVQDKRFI

`CO[C@@H]1COCC[C@@H]1N[C@@H]1CC[C@@](C(=O)N2Cc3cc(C(F)(F)F)cnc3[C@@H](NC(=O)CCOCCOCCOCCOCCOCCOCCOCCOCCOCCOCCOCCOCCNC(=O)[C@H]3CC(=O)N(C)[C@@H]3c3cccnc3)C2)(C(C)C)C1` (stereo in doubt) [Example 24, (2S,3S)-N-(39-(((S)-6-((1S,3R)-1-Isopropyl-3-(((3S,4S)-3-methoxytetrahydro-2H-pyran-4-yl)amino)cyclopentane-1-carbonyl)-3-(trifluoromethyl)-5,6,7,8-tetrahydro-1,6-naphthyridin-8-yl)amino)-39-oxo-3,6,9,12,15,18,21,24,27,30,33,36-dodecaoxanonatriacontyl)-1-methyl-5-oxo-2-(pyridin-3-yl)pyrrolidine-3-carboxamide, 3Formic acid salt]: the EC50 in assay [1] is 1 nM.
As to `CO[C@@H]1COCC[C@@H]1N(CCCNC(=O)[C@H]1CC[C@H](NC(=O)CCCO[C@H]2CC[C@H](OCCNC(=O)[C@H]3CC(=O)N(C)[C@@H]3c3cccnc3)CC2)CC1)[C@@H]1CC[C@@](C(=O)N2CCc3ncc(C(F)(F)F)cc3C2)(C(C)C)C1` [Example 13, (2S,3S)-N-(2-(((1R,4S)-4-(4-(((1S,4R)-4-((3-(((1R,3S)-3-isopropyl-3-(3-(trifluoromethyl)-5,6,7,8-tetrahydro-1,6-naphthyridine-6-carbonyl)cyclopentyl)((3S,4S)-3-methoxytetrahydro-2H-pyran-4-yl)amino)propyl)carbamoyl)cyclohexyl)amino)-4-oxobutoxy)cyclohexyl)oxy)ethyl)-1-methyl-5-oxo-2-(pyridin-3-yl)pyrrolidine-3-carboxamide], the IC50 (in general, the concentration needed to halve the response being measured) in assay [2] is more than 100000 nM. For the same compound, in assay [2] (read-out: Maximum Response (%)), the Emax at 100 µM was found to be 37%. Moreover, in assay [1], the EC50 is 0.794 nM.
For `CO[C@@H]1COCC[C@@H]1N[C@@H]1CC[C@@](C(=O)N2Cc3cc(C(F)(F)F)cnc3[C@H](NC(=O)CCOCCOCCOCCOCCOCCOCCOCCOCCOCCOCCOCCOCCNC(=O)[C@H]3CC(=O)N(C)[C@@H]3c3cccnc3)C2)(C(C)C)C1` [Example 23, (2S,3S)—N-(39-(((R)-6-((1S,3R)-1-Isopropyl-3-(((3S,4S)-3-methoxytetrahydro-2H-pyran-4-yl)amino)cyclopentane-1-carbonyl)-3-(trifluoromethyl)-5,6,7,8-tetrahydro-1,6-naphthyridin-8-yl)amino)-39-oxo-3,6,9,12,15,18,21,24,27,30,33,36-dodecaoxanonatriacontyl)-1-methyl-5-oxo-2-(pyridin-3-yl)pyrrolidine-3-carboxamide, 3Formic acid salt], the EC50 in assay [1] was 0.398 nM.
Consider `CO[C@@H]1COCC[C@@H]1N[C@@H]1CC[C@](CCCCNC(=O)[C@H]2CC[C@@H](NC(=O)CCOCCOCCOCCNC(=O)[C@H]3CC(=O)N(C)[C@@H]3c3cccnc3)CC2)(C(=O)N2CCc3ncc(C(F)(F)F)cc3C2)C1` [Example 18, (2S,3S)-N-(2-(2-(2-(3-(((1R,4s)-4-((4-((1S,3R)-3-(((3S,4S)-3-Methoxytetrahydro-2H-pyran-4-yl)amino)-1-(3-(trifluoromethyl)-5,6,7,8-tetrahydro-1,6-naphthyridine-6-carbonyl)cyclopentyl)butyl)carbamoyl)cyclohexyl)amino)-3-oxopropoxy)ethoxy)ethoxy)ethyl)-1-methyl-5-oxo-2-(pyridin-3-yl)pyrrolidine-3-carboxamide, Formic acid salt], for which the EC50 in assay [1] was 5.01 nM.
`CO[C@@H]1COCC[C@@H]1N[C@@H]1CC[C@](CCCNC(=O)[C@H]2CC[C@@H](NC(=O)CCCC(=O)NCCCC(=O)NCCCNC(=O)[C@H]3CC(=O)N(C)[C@@H]3c3cccnc3)CC2)(C(=O)N2CCc3ncc(C(F)(F)F)cc3C2)C1` [Example 16, N-((1R,4s)-4-((3-((1S,3R)-3-(((3S,4S)-3-Methoxytetrahydro-2H-pyran-4-yl)amino)-1-(3-(trifluoromethyl)-5,6,7,8-tetrahydro-1,6-naphthyridine-6-carbonyl)cyclopentyl)propyl)carbamoyl)cyclohexyl)-N-(4-((3-((2S,3S)-1-methyl-5-oxo-2-(pyridin-3-yl)pyrolidine-3-carboxamido)propyl)amino)-4-oxobutyl)glutaramide] had an IC50 in assay [2] of 71100 nM. Also, the Emax at 100 µM in assay [2] (read-out: Maximum Response (%)) was 64%. For the same compound, the EC50 in assay [1] is 0.631 nM.
The matching figures for `CO[C@@H]1COCC[C@@H]1N[C@@H]1CC[C@](CCCNC(=O)[C@H]2CC[C@@H](NC(=O)CCCO[C@H]3CC[C@H](OCCNC(=O)[C@H]4CC(=O)N(C)[C@@H]4c4cccnc4)CC3)CC2)(C(=O)N2CCc3ncc(C(F)(F)F)cc3C2)C1` [Example 6, (2S,3S)-N-(2-(((1R,4S)-4-(4-(((1R,4S)-4-((3-((1S,3R)-3-(((3S,4S)-3-Methoxytetrahydro-2H-pyran-4-yl)amino)-1-(3-(trifluoromethyl)-5,6,7,8-tetrahydro-1,6-naphthyridine-6-carbonyl)cyclopentyl)propyl)carbamoyl)cyclohexyl)amino)-4-oxobutoxy)cyclohexyl)oxy)ethyl)-1-methyl-5-oxo-2-(pyridin-3-yl)pyrrolidine-3-carboxamide, Formic acid salt]: more than 100000 nM, 31% and 0.794 nM.
The matching figures for `CO[C@@H]1COCC[C@@H]1N[C@@H]1CC[C@](CCCCNC(=O)[C@H]2CC[C@H](NC(=O)CCCO[C@H]3CC[C@@H](OCCNC(=O)[C@H]4CC(=O)N(C)[C@@H]4c4cccnc4)CC3)CC2)(C(=O)N2CCc3ncc(C(F)(F)F)cc3C2)C1` [Example 10, (2S,3S)-N-(2-(((1S,4R)-4-(4-(((1S,4R)-4-((4-((1S,3R)-3-(((3S,4S)-3-Methoxytetrahydro-2H-pyran-4-yl)amino)-1-(3-(trifluoromethyl)-5,6,7,8-tetrahydro-1,6-naphthyridine-6-carbonyl)cyclopentyl)butyl)carbamoyl)cyclohexyl)amino)-4-oxobutoxy)cyclohexyl)oxy)ethyl)-1-methyl-5-oxo-2-(pyridin-3-yl)pyrrolidine-3-carboxamide]: more than 100000 nM, 26% and 1.26 nM.
Regarding `CO[C@@H]1COCC[C@@H]1N[C@@H]1CC[C@](CCCCNC(=O)CCOCCOCCO[C@H]2CC[C@H](OCCNC(=O)[C@H]3CC(=O)N(C)[C@@H]3c3cccnc3)CC2)(C(=O)N2CCc3ncc(C(F)(F)F)cc3C2)C1` [Example 21, (2S,3S)-N-(2-(((1r,4S)-4-(2-(2-(3-((4-((1S,3R)-3-(((3S,4S)-3-Methoxytetrahydro-2H-pyran-4-yl)amino)-1-(3-(trifluoromethyl)-5,6,7,8-tetrahydro-1,6-naphthyridine-6-carbonyl)cyclopentyl)butyl)amino)-3-oxopropoxy)ethoxy)ethoxy)cyclohexyl)oxy)ethyl)-1-methyl-5-oxo-2-(pyridin-3-yl)pyrrolidine-3-carboxamide, Formic acid salt], the IC50 in assay [2] is more than 10000 nM. The Emax at 10 µM in assay [2] (maximum percentage antagonism at Maximum Concentration of Compound Tested 10 μM, read-out: Maximum Response (%)) worked out at 22%. Moreover, the EC50 in assay [1] is 6.31 nM.
